Measurements published in PubChem BioAssay (NCI).
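Following 48 hours of exposure in 96-well plates, responses at five concentrations were used to interpolate endpoints linearly. Abbreviation: GI50, concentration required for 50% inhibition of growth. Definition used: TGI = concentration required for complete inhibition of growth.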

Assays:
Assay in all cases: NCI tumour cell line growth inhibition, 48 h
[1] = test system: NCI-H23 lung
[2] = test system: NCI-H460 lung
[3] = test system: NCI-H522 lung
[4] = test system: NCI/ADR-RES ovarian
[5] = test system: OVCAR-3 ovarian
[6] = test system: OVCAR-4 ovarian
[7] = test system: OVCAR-5 ovarian
[8] = test system: OVCAR-8 ovarian
[9] = test system: PC-3 prostate
[10] = test system: RPMI-8226 leukemia
[11] = test system: RXF 393 renal
[12] = test system: SF-268 CNS
[13] = test system: SF-295 CNS
[14] = test system: SF-539 CNS
[15] = test system: SK-MEL-2 melanoma
[16] = test system: SK-MEL-28 melanoma
[17] = test system: SK-MEL-5 melanoma
[18] = test system: SK-OV-3 ovarian
[19] = test system: SN12C renal
[20] = test system: SNB-19 CNS
[21] = test system: SNB-75 CNS
[22] = test system: SR leukemia
[23] = test system: SW-620 colon
[24] = test system: T-47D breast
[25] = test system: TK-10 renal
[26] = test system: U251 CNS
[27] = test system: UACC-257 melanoma
[28] = test system: UACC-62 melanoma
[29] = test system: UO-31 renal

SMILES: CC1=NN(C(=O)c2nn(-c3ccc(Cl)cc3)cc2O)C(=O)C1
- GI50 [1]: 3.03 µM
- TGI [1]: > 100 µM
- GI50 [2]: 0.41 µM
- TGI [2]: > 52.7 µM
- GI50 [3]: 1.44 µM
- TGI [3]: > 86.5 µM
- GI50 [4]: 1.83 µM
- TGI [4]: > 52.2 µM
- GI50 [5]: 1.34 µM
- TGI [5]: > 27.9 µM
- GI50 [6]: 3 µM
- TGI [6]: > 100 µM
- TGI [7]: > 78.9 µM
- GI50 [8]: 1.49 µM
- TGI [8]: > 100 µM
- GI50 [9]: 0.348 µM
- TGI [9]: > 100 µM
- GI50 [10]: 1.07 µM
- TGI [10]: > 88.9 µM
- GI50 [11]: 2.18 µM
- TGI [11]: > 76.6 µM
- GI50 [12]: 0.632 µM
- TGI [12]: > 100 µM
- GI50 [13]: 0.285 µM
- GI50 [14]: 1.9 µM
- TGI [14]: > 87.4 µM
- GI50 [15]: 53.7 µM
- TGI [15]: > 100 µM
- GI50 [16]: 9.13 µM
- TGI [16]: > 100 µM
- GI50 [17]: 3.45 µM
- TGI [17]: > 36.9 µM
- GI50 [18]: 1.79 µM
- TGI [18]: > 100 µM
- GI50 [19]: 1.81 µM
- TGI [19]: > 100 µM
- GI50 [20]: 3.16 µM
- TGI [20]: > 100 µM
- GI50 [21]: 0.532 µM
- TGI [21]: > 100 µM
- GI50 [22]: 0.419 µM
- TGI [22]: 7.97 µM
- GI50 [23]: 4.55 µM
- TGI [23]: > 100 µM
- GI50 [24]: 2.87 µM
- TGI [24]: > 100 µM
- GI50 [25]: 0.578 µM
- TGI [25]: > 100 µM
- GI50 [26]: 0.734 µM
- TGI [26]: > 100 µM
- GI50 [27]: 6.27 µM
- TGI [27]: 28.9 µM
- GI50 [28]: 2.28 µM
- TGI [28]: > 80.8 µM
- GI50 [29]: 2.87 µM
- TGI [29]: > 100 µM
